Measured values published in publication PMC9894841, “Characterisation of a cyclic peptide that binds to the RAS binding domain of phosphoinositide 3-kinase p110α” (Scientific Reports, 2023).
Where “and” joins values, the source holds several entries; their conditions need not be identical. Identical values can stand only once. Entries after “also recorded” stand apart in the source; their conditions may differ. Residues, ends and D or L forms follow the SMILES beside them.

Assays:
[1] = molecular target: p110α (p110α/p85α) (Homo sapiens, UniProt P42336); experiment: Microscale thermophoresis (MST) binding to labelled p110α/p85α; settings: for Kd: labelled protein 100 nM, 25 °C; for increase in affinity for p110α over cyclo-CRVLAA: MST
Sequence of p110α (p110α/p85α) (P42336 whole entry, species assumed): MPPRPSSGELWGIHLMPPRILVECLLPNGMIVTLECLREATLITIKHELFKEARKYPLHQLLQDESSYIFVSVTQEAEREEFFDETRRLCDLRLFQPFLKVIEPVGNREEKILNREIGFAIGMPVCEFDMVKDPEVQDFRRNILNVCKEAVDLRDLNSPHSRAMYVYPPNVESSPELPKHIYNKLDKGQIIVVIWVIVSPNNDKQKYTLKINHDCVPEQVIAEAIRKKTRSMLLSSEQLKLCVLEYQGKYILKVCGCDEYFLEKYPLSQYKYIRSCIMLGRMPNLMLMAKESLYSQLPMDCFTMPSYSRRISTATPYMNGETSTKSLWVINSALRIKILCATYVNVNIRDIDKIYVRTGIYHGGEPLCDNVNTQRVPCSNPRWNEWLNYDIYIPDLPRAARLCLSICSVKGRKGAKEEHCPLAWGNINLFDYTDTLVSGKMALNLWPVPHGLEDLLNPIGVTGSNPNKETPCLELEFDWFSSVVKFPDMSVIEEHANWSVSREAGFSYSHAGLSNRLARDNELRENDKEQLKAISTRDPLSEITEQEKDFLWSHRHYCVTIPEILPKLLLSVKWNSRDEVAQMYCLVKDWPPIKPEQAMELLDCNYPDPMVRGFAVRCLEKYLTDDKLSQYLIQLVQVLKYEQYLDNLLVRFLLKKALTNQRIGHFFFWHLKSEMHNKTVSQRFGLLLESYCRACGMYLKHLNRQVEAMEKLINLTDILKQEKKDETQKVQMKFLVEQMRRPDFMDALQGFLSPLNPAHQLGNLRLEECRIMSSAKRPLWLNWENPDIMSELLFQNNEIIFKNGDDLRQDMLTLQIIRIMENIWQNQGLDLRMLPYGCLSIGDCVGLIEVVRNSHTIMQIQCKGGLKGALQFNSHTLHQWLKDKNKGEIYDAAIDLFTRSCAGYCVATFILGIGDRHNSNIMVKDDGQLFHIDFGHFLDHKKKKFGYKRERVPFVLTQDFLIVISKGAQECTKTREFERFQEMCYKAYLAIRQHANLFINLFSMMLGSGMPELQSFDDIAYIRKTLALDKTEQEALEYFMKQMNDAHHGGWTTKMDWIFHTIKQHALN
Sequence of p110α (p110α/p85α) (P27986 whole entry partner, species assumed): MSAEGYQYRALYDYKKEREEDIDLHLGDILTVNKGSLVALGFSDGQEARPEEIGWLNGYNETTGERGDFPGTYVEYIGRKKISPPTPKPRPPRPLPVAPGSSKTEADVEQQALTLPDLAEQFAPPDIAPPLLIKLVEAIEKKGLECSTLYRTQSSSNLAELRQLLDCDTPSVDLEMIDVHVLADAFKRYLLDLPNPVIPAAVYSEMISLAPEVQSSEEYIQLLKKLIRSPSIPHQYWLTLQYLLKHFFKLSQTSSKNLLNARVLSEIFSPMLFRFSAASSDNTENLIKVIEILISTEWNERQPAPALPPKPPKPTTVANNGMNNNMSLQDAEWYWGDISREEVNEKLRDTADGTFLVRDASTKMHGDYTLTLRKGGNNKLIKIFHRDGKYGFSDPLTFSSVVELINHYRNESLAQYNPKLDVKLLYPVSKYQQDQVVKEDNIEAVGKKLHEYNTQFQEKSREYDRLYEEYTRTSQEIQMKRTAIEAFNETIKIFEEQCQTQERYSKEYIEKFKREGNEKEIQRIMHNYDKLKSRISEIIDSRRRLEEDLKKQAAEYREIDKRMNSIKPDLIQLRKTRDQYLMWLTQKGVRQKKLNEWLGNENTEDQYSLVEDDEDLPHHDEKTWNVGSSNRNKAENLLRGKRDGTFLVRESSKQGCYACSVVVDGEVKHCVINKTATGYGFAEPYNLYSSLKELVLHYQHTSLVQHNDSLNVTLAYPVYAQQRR

[2] = molecular target: T1, GST-RBDα/KRAS (Homo sapiens, UniProt P42336); experiment: GST-RBDα/KRAS reverse two-hybrid system (RTHS), SICLOPPS screen; assay type: cell-based, E. coli; settings: arabinose induced expression of the cyclic peptide
T1 construct: we created a fusion of the RBD (amino acids 133 – 314) with GST; expressed in transfected cells; host or cells: E. coli strain SNS126 (cassette integrated via pAH68)
T1 sequence (P42336 133-314): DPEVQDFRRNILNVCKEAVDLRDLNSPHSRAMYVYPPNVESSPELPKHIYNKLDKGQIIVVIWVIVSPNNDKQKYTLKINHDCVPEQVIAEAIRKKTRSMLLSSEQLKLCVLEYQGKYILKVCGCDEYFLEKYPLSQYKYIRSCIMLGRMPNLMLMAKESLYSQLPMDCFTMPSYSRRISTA
Excerpt: The SICLOPPS technique as previously published is based on two steps: first, building a reverse two-hybrid system (RTHS) that expresses the target protein complex in bacteria as a screening platform and second, the production of a genetically encoded cyclic peptide library[25]–[29]. […] Also, the expression of the full length p110α needs to be in association with the regulatory subunit p85α in order to achieve a stable protein dimer, which makes it a large and complex protein to express in bacteria. In a successful RTHS system, the engineered bacterial cell line should show a reduction of growth on selective media upon induction of expression of the target protein complex with increasing isopropyl β-d-1-thiogalactopyranoside (IPTG)[27]–[29]. […] We hypothesised that this could be due to a lack of solubility of RBDα, a previously described feature of the RBDs of p110 proteins. Therefore, we designed another RTHS carrying a GST fusion tag at the N-terminus of the RBDα (GST-RBDα/KRAS RTHS).
We used the GST-RBDα/KRAS RTHS to screen a CXXXXX (where X is any of the 20 canonical amino acids) SICLOPPS plasmid library of 3.2 million genetically encoded cyclic hexapeptides. The cyclic peptides contain an invariant cysteine and five other amino acids that are each equally distributed between the twenty possibilities. Thus, each SICLOPPS plasmid contains a different sequence representing a unique peptide.
Due to the lack of solubility of the p110α-RBD we created a fusion of the RBD (amino acids 133 – 314) with GST (Glutathione S-transferase) by PCR amplification, to produce a recombinant protein of GST-RBD (hereafter RBD). Both KRAS (amino acids 1–168—lacking the Hyper Variable Region) and the RBD were cloned into the pTHCP14 vector that contains two bacteriophage repressors P22 and 434, producing a cassette that consists of two fusion proteins—KRAS with 434 and RBD with P22. This cassette was then sub-cloned into the CRIM integration plasmid pAH68—for integration into E. coli strain SNS126 that contains the chimeric P22 and 434 operators. When expressed, the interaction of KRAS with the RBD brings together the P22 and the 434 repressors to form a dimer that will interact with the chimeric P22 and 434 operators—resulting in no growth on selective media.
The SICLOPPS library was generated by PCR amplification using degenerate primers encoding cyclo-CXXXXX hexapeptides (where X is any amino acid), producing around 3.2 million compounds. The SICLOPPS RTHS formation, cyclic peptide production and library screening were followed as described[24],[25],[46].

[3] = Solubility of the peptides (in words); assay type: physicochemical
[4] = molecular target: CRAF-RBD (Homo sapiens, UniProt P04049); experiment: MST binding to CRAF-RBD
Sequence of CRAF-RBD (P04049 56-131 limits assumed): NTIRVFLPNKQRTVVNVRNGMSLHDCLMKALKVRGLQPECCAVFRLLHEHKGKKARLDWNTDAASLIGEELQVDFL
Experimental: Measurements were performed using a NanoTemper Monolith™ NT.115 instrument (NanoTemper Technologies GmbH, München, Germany). […] Labelling levels (generally in the range 0.3–0.4 dye molecules per protein molecule) were determined using calculated extinction coefficients for the protein and ε647 = 250,000 M^−1 cm^−1 (or ε495 = 70,000 M^−1 cm^−1) for the dye concentration. In a typical experiment 20 ml aliquots of a 100 nM stock solution of labelled protein were mixed with 20 ml aliquots of a serial dilution of binding partner. These solutions were then loaded into standard treated capillaries and MST measurements were performed at 25 °C using 20–40% LED power and 40–60% IR-Laser power. The laser Laser-On time was 30 s and Laser-Off time 5 s. All measurements were performed at least five times.

[5] = test system: H1792 cells; experiment: Western blot of phospho-AKT / phospho-ERK in H1792 cells; assay type: cell-based, human; settings: RPMI 1640 10% FCS, 2, 10 and 50 µM (also 4, 20 and 100 µM), 4 h
Experimental: We treated the human lung cancer cell line H1792, growing at steady-state in Roswell Park Memorial Institute (RPMI) 1640 media with 10% Foetal Calf Serum (FCS), with the seven cyclic peptides at three different concentrations (2, 10 and 50 µM) for 4 h. After treatment we measured the effect of the peptides on the phosphorylation levels of AKT (pAKT-Ser473), a key downstream effector of p110α activity. […] In contrast, the phosphorylation levels of ERK (p-ERK), which is a downstream effector of the RAS/RAF/MEK/ERK pathway and is independent of p110α activity, were not affected.
The next day, 1 ml of medium was removed and the cells were treated with different peptide concentrations for 4 h. All peptides were dissolved in 25 mM Tris pH8, 100 mM NaCl and 1 mM TCEP. Cells were then harvested and lysed for SDS-PAGE and western blot analysis. Anti-calnexin antibody was obtained from Abcam. Antibodies directed against phospho-T202/Y204-ERK, ERK, phospho-S473-AKT and AKT were obtained from Cell Signaling. After western blotting, calnexin, AKT and phospho-AKT signals were quantified using ImageJ and statistical tests were done using Prism software.

| Kd [1] | Molecule | regrowth of the GST-RBDα/KRAS RTHS on selective media with IPTG [2] | further results |
| --- | --- | --- | --- |
| ≥ 817 µM | CC(C)C[C@@H]1NC(=O)[C@H](C(C)C)NC(=O)[C@H](CCCNC(=N)N)NC(=O)[C@H](CS)NC(=O)[C@H](CCC(=O)O)NC(=O)[C@H](C)NC1=O [CRVLAE, Cyclo-CRVLAE] (cyclo(CRVLAE)) |  |  |
| ≥ 476 µM | CC(C)C[C@@H]1NC(=O)[C@H](C(C)C)NC(=O)[C@H](CCCNC(=N)N)NC(=O)[C@H](CS)NC(=O)[C@H](C)NC(=O)[C@H](CC(=O)O)NC1=O [CRVLDA, Cyclo-CRVLDA] (cyclo(CRVLDA)) |  |  |
| ≥ 1210 µM | CC(C)C[C@@H]1NC(=O)[C@H](C(C)C)NC(=O)[C@H](CCCNC(=N)N)NC(=O)[C@H](CS)NC(=O)[C@H](C)NC(=O)[C@H](CCC(=O)O)NC1=O [CRVLEA, Cyclo-CRVLEA] (cyclo(CRVLEA)) |  |  |
| ≥ 140 µM | CC(C)C[C@@H]1NC(=O)[C@H](C(C)C)NC(=O)[C@H](CCCNC(=N)N)NC(=O)[C@H](CS)NC(=O)[C@H](C)NC(=O)[C@H](CCCNC(=N)N)NC1=O [CRVLRA, Cyclo-CRVLRA] (cyclo(CRVLRA)) |  |  |
|  | CC(C)C[C@@H]1NC(=O)[C@H](CCCCN)NC(=O)[C@H](CS)NC(=O)[C@H](CC(C)C)NC(=O)[C@H](C(C)C)NC(=O)[C@H](C(C)C)NC1=O [cyclo-CKLVVL, Cyclo-CKLVVL] (cyclo(CKLVVL)) | regrowth |  |
|  | CC(C)C[C@@H]1NC(=O)[C@H](CS)NC(=O)[C@H](Cc2ccc(O)cc2)NC(=O)[C@H](Cc2c[nH]c3ccccc23)NC(=O)[C@H](Cc2c[nH]c3ccccc23)NC(=O)[C@H](C(C)C)NC1=O [cyclo-CLVWWY, Cyclo-CLVWWY] (cyclo(CLVWWY)) | regrowth |  |
|  | CC(C)C[C@@H]1NC(=O)[C@H](CS)NC(=O)[C@H](Cc2c[nH]c3ccccc23)NC(=O)[C@H](Cc2c[nH]c3ccccc23)NC(=O)[C@H](Cc2ccc(O)cc2)NC(=O)[C@H](Cc2c[nH]c3ccccc23)NC1=O [cyclo-CLWYWW, Cyclo-CLWYWW] (cyclo(CLWYWW)) | regrowth |  |
|  | CSCC[C@@H]1NC(=O)[C@H](CS)NC(=O)[C@H](CCCNC(=N)N)NC(=O)CNC(=O)CNC(=O)[C@H](CO)NC1=O [cyclo-CMSGGR, Cyclo-CMSGGR] (cyclo(CMSGGR)) | regrowth |  |
|  | CC[C@H](C)[C@@H]1NC(=O)[C@H](CCCNC(=N)N)NC(=O)[C@H](CS)NC(=O)[C@H]([C@@H](C)CC)NC(=O)[C@H](C(C)C)NC(=O)[C@H](C(C)C)NC1=O [cyclo-CRIVVI, Cyclo-CRIVVI] (cyclo(CRIVVI)) | regrowth |  |
| ≥ 360 µM and ~360 µM | CC(C)C[C@@H]1NC(=O)[C@H](C(C)C)NC(=O)[C@H](CCCNC(=N)N)NC(=O)[C@H](CS)NC(=O)[C@H](C)NC(=O)[C@H](C)NC1=O [cyclo-CRVLAA, Cyclo-CRVLAA] |  | binding to p110α in words, MST [1]: weak binding; also recorded: interacted weakly; solubility in words [3]: most soluble of these |
| 11.8 ± 1.75 µM | CC(C)C[C@@H]1NC(=O)[C@H](C(C)C)NC(=O)[C@H](CCCNC(=N)N)NC(=O)[C@H](CS)NC(=O)[C@H](CC(=O)O)NC(=O)[C@H](C)NC1=O [cyclo-CRVLAD, Cyclo-CRVLAD] |  | increase in affinity for p110α over cyclo-CRVLAA [1]: 30 fold; binding to CRAF-RBD in words, MST [4]: does not interact; also recorded: did not produce a positive signal of interaction |
|  | CC(C)C[C@@H]1NC(=O)[C@H](C(C)C)NC(=O)[C@H](CCCNC(=N)N)NC(=O)[C@H](CS)NC(=O)[C@H](CCCNC(=N)N)NC(=O)[C@H](C)NC1=O [cyclo-CRVLAR, Cyclo-CRVLAR] (cyclo(ARCRVL)) |  | increase in affinity for p110α over cyclo-CRVLAA [1]: tenfold |
|  | CC(C)C[C@@H]1NC(=O)[C@H](C(C)C)NC(=O)[C@H](CCCNC(=N)N)NC(=O)[C@H](CS)NC(=O)[C@H](CCCNC(=N)N)NC(=O)[C@H]([C@@H](C)O)NC1=O [cyclo-CRVLTR, Cyclo-CRVLTR] (cyclo(CRVLTR)) |  | effect on phospho-AKT (pAKT-Ser473) levels [5]: mild effect |
|  | CC[C@H](C)[C@@H]1NC(=O)[C@H](C(C)C)NC(=O)[C@H](CS)NC(=O)[C@H](C(C)C)NC(=O)[C@H](C(C)C)NC(=O)[C@H](CC(C)C)NC1=O [cyclo-CVILVV, Cyclo--CVILVV] (cyclo(CVILVV)) | regrowth |  |
|  | CC(C)C[C@@H]1NC(=O)[C@H](Cc2ccc(O)cc2)NC(=O)[C@H](CC(C)C)NC(=O)[C@H](CC(C)C)NC(=O)[C@H](Cc2c[nH]c3ccccc23)NC(=O)[C@H](CS)NC1=O [cyclo-CWLLYL, Cyclo-CWLLYL] (cyclo(CWLLYL)) | regrowth |  |
|  | Cyclo-CAWCGR | regrowth |  |
